Data reported in ChEMBL document CHEMBL1201862, “PubChem BioAssay data set” (2004).
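48-hour exposure; five concentrations; linearly interpolated endpoints. GI50 is the concentration that inhibits growth by half.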 Calls of active or inactive are those of the source. Cut-off read from the data, not from the text of the source: active = GI50 up to about 1.1 µM and inactive = higher.

What was measured:
Test in all cases: NCI-60 cell line screen, 48 h
CCRF-CEM = tested on: CCRF-CEM
HCT-116 = tested on: HCT-116
OVCAR-4 = tested on: OVCAR-4
IGROV-1 = tested on: IGROV-1
SK-MEL-2 = tested on: SK-MEL-2
MOLT-4 = tested on: MOLT-4
Malme-3M = tested on: Malme-3M
COLO 205 = tested on: COLO 205
SK-MEL-5 = tested on: SK-MEL-5
K562 = tested on: K562
NCI-H23 = tested on: NCI-H23
UACC-62 = tested on: UACC-62
U-251 = tested on: U-251
HCT-15 = tested on: HCT-15
SR = tested on: SR
SW-620 = tested on: SW-620
DU-145 = tested on: DU-145
HOP-92 = tested on: HOP-92
SN12C = tested on: SN12C
LOX IMVI = tested on: LOX IMVI

Row | SMILES | GI50 (CCRF-CEM) | GI50 (HCT-116) | GI50 (OVCAR-4) | GI50 (IGROV-1) | GI50 (SK-MEL-2) | GI50 (MOLT-4) | GI50 (Malme-3M) | GI50 (COLO 205) | GI50 (SK-MEL-5) | GI50 (K562) | GI50 (NCI-H23) | GI50 (UACC-62) | GI50 (U-251) | GI50 (HCT-15) | GI50 (SR) | GI50 (SW-620) | GI50 (DU-145) | GI50 (HOP-92) | GI50 (SN12C) | GI50 (LOX IMVI)
1 | C=C1c2nc3ccccc3n2C=C(c2ccc(C)cc2)N1c1ccc(OC)cc1 | 34.4 µM (inactive) | 19.5 µM (inactive) | > 94.2 µM (inactive) | > 83 µM (inactive) | 60.7 µM (inactive) | 15.2 µM (inactive) | 21.8 µM (inactive) | 31.9 µM (inactive) | 13.7 µM (inactive) | 6.41 µM (inactive) | > 73.6 µM (inactive) | 51.3 µM (inactive) | 97.7 µM (inactive) | 9.51 µM | 3.22 µM (inactive) | 13.6 µM (inactive) | > 100 µM (inactive) | > 48.2 µM (inactive) | > 94.4 µM (inactive) | 50.1 µM (inactive)
2 | CCCCCCCCCCCC(=O)OC[C@@H](C[As](=O)(O)O)OC(=O)CCCCCCCCCCC | 16.2 µM (inactive) | 8.45 µM (inactive) | 14.2 µM (inactive) | 1.85 µM (inactive) | 2.69 µM (inactive) | 5.51 µM (inactive) | 3.41 µM (inactive) | 17 µM (inactive) | 1.82 µM (inactive) | 5.75 µM (inactive) | 5.69 µM (inactive) | 2.52 µM (inactive) | 2.14 µM (inactive) | 9.04 µM | 7.36 µM (inactive) | 15 µM (inactive) | 18.1 µM (inactive) | 1.71 µM (inactive) | 7 µM (inactive) | 4.24 µM (inactive)
3 | Fc1cc(-c2cc(-c3ccc4c(c3)OCO4)n[nH]2)c(Cl)cc1Cl | 11.9 µM (inactive) | 2 µM (inactive) | 1.91 µM (inactive) | 1.71 µM (inactive) | 15.8 µM (inactive) | > 32.2 µM (inactive) | 4.94 µM (inactive) | 3.42 µM (inactive) | 6.38 µM (inactive) | 4.45 µM (inactive) | 2.47 µM (inactive) | 1.46 µM (inactive) | 1.91 µM (inactive) | 7.71 µM | 7.29 µM (inactive) | 4.6 µM (inactive) | 3.34 µM (inactive) | 2.26 µM (inactive) | 2.7 µM (inactive) | 2.95 µM (inactive)
4 | C=C1C(=O)OC2CC3(CO3)C3C(O)C(O)CC3(C)CC12 (stereo not given) | 15.2 µM (inactive) | 18.2 µM (inactive) | 76.6 µM (inactive) | 35.6 µM (inactive) | 16 µM (inactive) | 17.8 µM (inactive) | 18.2 µM (inactive) | 29.9 µM (inactive) | 19 µM (inactive) | 27.5 µM (inactive) | 22.3 µM (inactive) | 16.6 µM (inactive) | 43 µM (inactive) | 17 µM | 20.8 µM (inactive) | 16.6 µM (inactive) | 34.4 µM (inactive) | 27.6 µM (inactive) | 24.4 µM (inactive) | 8.24 µM (inactive)
5 | C/C(=N\NC(=S)N1CCOCC1)c1nc2cccnc2[nH]1 | 30.3 µM (inactive) | 27.8 µM (inactive) | 13.7 µM (inactive) | 47.1 µM (inactive) | 17.9 µM (inactive) | 32.2 µM (inactive) | > 100 µM (inactive) | 36.9 µM (inactive) | 27.6 µM (inactive) | 51.9 µM (inactive) | 35.2 µM (inactive) | 37.7 µM (inactive) | 21.6 µM (inactive) | 53.5 µM | 49.5 µM (inactive) | 43 µM (inactive) | 39.9 µM (inactive) | 14.1 µM (inactive) | 74 µM (inactive) | 29.4 µM (inactive)
6 | Nc1ccc2nc3n(c(=O)c2c1)CCCCC3 | > 100 µM (inactive) | > 100 µM (inactive) | > 100 µM (inactive) | > 100 µM (inactive) | > 100 µM (inactive) | > 100 µM (inactive) | > 100 µM (inactive) | > 100 µM (inactive) | > 100 µM (inactive) | > 100 µM (inactive) | > 100 µM (inactive) | > 100 µM (inactive) | > 100 µM (inactive) | > 100 µM | > 100 µM (inactive) | > 100 µM (inactive) | > 100 µM (inactive) | > 100 µM (inactive) | > 100 µM (inactive) | > 100 µM (inactive)
7 | COc1ccc(/N=C(Nc2ccc(OC)cc2)/C(=N/c2ccc(OC)cc2)Nc2ccc(OC)cc2)cc1 | 36 µM (inactive) | > 100 µM (inactive) | > 100 µM (inactive) | > 100 µM (inactive) | > 100 µM (inactive) | 4.25 µM (inactive) | > 100 µM (inactive) | > 100 µM (inactive) | > 100 µM (inactive) | 15 µM (inactive) | > 100 µM (inactive) | > 100 µM (inactive) | > 100 µM (inactive) | > 100 µM | 48.2 µM (inactive) | > 100 µM (inactive) | > 100 µM (inactive) | > 100 µM (inactive) | > 100 µM (inactive) | > 100 µM (inactive)
8 | C[N+]1=C2[B-](C(C)(C)C)=[N+](C(C)(C)C)[B-]2(C(C)(C)C)[N+](C)=C2[B-](C(C)(C)C)=[N+](C(C)(C)C)[B-]21C(C)(C)C (stereo not given) | > 100 µM (inactive) | > 100 µM (inactive) | > 100 µM (inactive) | > 100 µM (inactive) | > 100 µM (inactive) | > 100 µM (inactive) | > 100 µM (inactive) | > 100 µM (inactive) | > 100 µM (inactive) | > 100 µM (inactive) | > 100 µM (inactive) | > 100 µM (inactive) | > 100 µM (inactive) | > 100 µM | > 100 µM (inactive) | > 100 µM (inactive) | > 100 µM (inactive) | > 100 µM (inactive) | > 100 µM (inactive) | > 100 µM (inactive)
9 | COC(=O)C1CCCCCCCCCCC12SCCCS2 (stereo not given) | 23 µM (inactive) | 16.3 µM (inactive) | 16.5 µM (inactive) | 17.7 µM (inactive) | 18.6 µM (inactive) | 15.8 µM (inactive) | 20.3 µM (inactive) | 18.6 µM (inactive) | 18.7 µM (inactive) | 24.5 µM (inactive) | 34.8 µM (inactive) | 25.6 µM (inactive) | 17.3 µM (inactive) | 26.7 µM | 11.5 µM (inactive) | 27.2 µM (inactive) | 16.7 µM (inactive) | 19.4 µM (inactive) | 16.9 µM (inactive) | 18.3 µM (inactive)
10 | CC(=O)Nc1nc(C)c(S(=O)(=O)NC(=O)NC2NC(=O)NC2=O)s1 (stereo not given) | > 100 µM (inactive) | > 100 µM (inactive) | > 100 µM (inactive) | > 100 µM (inactive) | > 100 µM (inactive) | > 100 µM (inactive) | > 100 µM (inactive) | > 100 µM (inactive) | > 100 µM (inactive) | > 100 µM (inactive) | > 100 µM (inactive) | > 100 µM (inactive) | > 100 µM (inactive) | > 100 µM | > 100 µM (inactive) | > 100 µM (inactive) | > 100 µM (inactive) | > 100 µM (inactive) | > 100 µM (inactive) | > 100 µM (inactive)
11 | Cc1nn(C(=O)c2ccc(Cl)cc2)c2c1C(c1ccccc1[N+](=O)[O-])SC(=N)N2 (stereo not given) | > 10 µM (inactive) | > 10 µM (inactive) | > 10 µM (inactive) | > 10 µM (inactive) | > 10 µM (inactive) | > 10 µM (inactive) | > 10 µM (inactive) | > 10 µM (inactive) | > 10 µM (inactive) | > 10 µM (inactive) | > 10 µM (inactive) | > 10 µM (inactive) | > 10 µM (inactive) | > 10 µM | > 10 µM (inactive) | > 10 µM (inactive) | > 10 µM (inactive) | > 10 µM (inactive) | > 10 µM (inactive) | > 10 µM (inactive)
12 | O=c1c2cc3c(cc2[nH]c2ncccc12)OCO3 | > 10 µM (inactive) | > 10 µM (inactive) | > 10 µM (inactive) | > 10 µM (inactive) | > 10 µM (inactive) | > 10 µM (inactive) | > 10 µM (inactive) | > 10 µM (inactive) | > 10 µM (inactive) | > 10 µM (inactive) | > 10 µM (inactive) | > 10 µM (inactive) | > 10 µM (inactive) | > 10 µM | > 10 µM (inactive) | > 10 µM (inactive) | > 10 µM (inactive) | > 10 µM (inactive) | > 10 µM (inactive) | > 10 µM (inactive)
13 | CCCCCCCCC/C=C1\CC(CO)(COC(=O)C2CCCCC2)OC1=O (stereo not given) | 12.9 µM (inactive) | 23 µM (inactive) | 22.8 µM (inactive) | 20.2 µM (inactive) | 18.2 µM (inactive) | 21.7 µM (inactive) | 15.2 µM (inactive) | 13.6 µM (inactive) | 11.8 µM (inactive) | 11 µM (inactive) | 22.9 µM (inactive) | 21.5 µM (inactive) | 19.7 µM (inactive) | 23.2 µM | 32.4 µM (inactive) | 18.4 µM (inactive) | 7.6 µM (inactive) | 8.17 µM (inactive) | 16.9 µM (inactive) | 11.8 µM (inactive)
14 | N#CC(C#N)=C(N)/C(C#N)=C/c1cc(O)c(O)c(Br)c1 | 28.2 µM (inactive) | 37.8 µM (inactive) | 38.6 µM (inactive) | > 65.2 µM (inactive) | 90.6 µM (inactive) | 36.2 µM (inactive) | 85.7 µM (inactive) | 52.2 µM (inactive) | 60.3 µM (inactive) | 46.6 µM (inactive) | > 100 µM (inactive) | 39.4 µM (inactive) | 53 µM (inactive) | 48.8 µM | 37.8 µM (inactive) | 51.6 µM (inactive) | 97.5 µM (inactive) | 46 µM (inactive) | > 69.3 µM (inactive) | 42 µM (inactive)
